The values that follow come from US20230218573A1, “INDOLE COMPOUNDS FOR THE TREATMENT OF NEURODEGENERATIVE DISEASES” (GALYAN BIO, INC., priority 2020, published 2023).

The subject of experiment [1] is Htt14A2.6 PC12 cells (mHttex1-GFP). The experiment is described as follows: mHTT aggregation by filter retardation assay in Htt14A2.6 PC12 cells. The experiment is classed as cell-based. The following applies: 24 hour treatment, different concentrations. The procedure:
Compounds from the Biacore screening were selected for measurement of aggregation in a cell model Htt14A2.6 PC12. Htt14A2.6 PC12 cells express a GFP- tagged 97Q mHtt exon 1 fusion protein (mHttex1-GFP) in the presence of ponasterone A. Htt14A2.6 PC12 cells were grown in medium containing 5 µM ponasterone A for 20 hours prior to treatment with the compounds. Htt14A2.6 PC12 cells were plated at 50~60% confluency. Compound 22 was tested at a final concentration of 80 nM, 400 nM and 10 µM in cell culture medium for 24 hours. Htt14A2.6 PC12 cells were harvested, rinsed, homogenized in cold phosphate-buffered saline containing protease inhibitor cocktail, and centrifuged at 16000 g for 30 min at 4° C. twice. About 25 µg total protein of each sample was resolved in 8% SDS PAGE, transferred onto PVDF membrane, blotted with an anti-GFP antibody, and visualized by ECL detection. mHTT aggregates were quantified from the cell lysates by filter retardation assay (Wanker, E.E., et al., Methods Enzymol (1999); 309: 375-386).

Experiment [2] deals with R6/2 mice of Huntington's disease. The experiment in a line: Grip strength in R6/2 mice. Type of experiment: in vivo. To be noted: 33 mg/kg i.p. QD; 4-12 weeks of age. The procedure: Methods - Total of 20 female and male R6/2 mice and 10 female and male wild-type littermate control mice (WT) were used in the study. The mice were genotyped and the R6/2 mice were divided into different treatment groups based on their litter and baseline body weight. The treatment with Vehicle or Compound 22(33 mg/kg; 5 ml/kg, i.p. QD) was started at 4 weeks of age after the baseline behavioral tests (FIG. 10). Body weights were measured at 3 weeks of age and twice a week until the end of the study.
The experimental groups were: • Group 1) 10 wild-type mice (mixed gender) treated with Vehicle (5 ml/kg, i.p., QD) starting at 4 weeks of age • Group 2) 10 R6/2 mice (mixed gender) treated with Vehicle (5 ml/kg, i.p., QD) starting at 4 weeks of age • Group 3) 10 R6/2 mice (mixed gender) treated with Compound 22 (33 mg/kg; 5 ml/kg, i.p. QD) starting at 4 weeks of age […]
Mice were taken to the experimental room and, one at a time, were placed on the grip strength apparatus (San Diego Instruments, San Diego, USA) in such a way that the animal grabbed a small mesh grip with its forepaws. […] Five scores were recorded per animal in consecutive sequence, and the average of three best scores for each animal was used for the results. […]

The target in the next experiment is T1, Exon1 Q46 protein (Homo sapiens, UniProt P42858, INS38QQQQQQQQQQQQQQQQQQQQQQQQQ).
T1 construct: fused on or other part: E. coli thioredoxin (TRX) at the N-terminus as a solubility handle; linker […]; C-terminal GSG-His6 tag
The experiment in a line: Kd to Exon1 Q46 protein. The experiment is classed as binding.

The test system of a further experiment is LC3 (autophagic flux). The experiment is described as follows: Autophagic flux and LC3 stained area in STHdh 111/111 cells. Type of experiment: cell-based, mouse. The procedure:
Staining - Cells were permeabilized with 0.3% Triton X-100 in 4° C. PBS (pH 7.4 from ThermoFisher) for 10 minutes. Then the cells were washed two times with 4° C. PBS. Subsequently, cells are blocked with 3% NGS (normal goat serum from Thermo Fisher) in 4° C. PBS for 1 hour. Cells were incubated with primary antibodies in blocking buffer (PBS, 3% NGS, 0.02% NaN3) over night at 4° C. Primary antibodies were mouse antipolyglutamine monoclonal antibody 3B5H10 (Sigma-Aldrich) at 1:250 dilution and Guinea Pig anti-MAP2 polyclonal antibody (Synaptic Systems) at 1:500 dilution. […]
Fluorescence Imaging - Imaging sessions were performed on a confocal microscope system (Carl Zeiss Microscopy) equipped with a dual spinning disk unit (Yokogawa). […] The fluorescence images obtained of the immunofluorescence labelled tissue sections were quantified with the help of the “Image Processing and Analysis in Java” or short ImageJ software distributed under the GNU General Public License by the NIH (Rueden, C.T. et al., BMC Bioinformatics. 2017 Nov 29;18(1):529), i.e. the edition used was the Fiji distribution (Schindelin, J. et al., Nature methods. 2012 Jun 28;9(7):676-82). […]
Autophagic flux was calculated as the area stained with LC3 antibody per cell in STHdh 111/111 with autophagy inhibitor NH4Cl minus area stained with LC3 antibody per cell in STHdh 111/111 without the autophagy inhibitor NH4Cl.

For the next experiment, the system named is NGFR. The experiment is described as follows: Nanostring gene expression in STHdh 111/111 cells: NGFR. Type of experiment: cell-based, mouse. The following applies: treated STHdh 111/111 (Q111-10), 48 h; in comparison to untreated STHdh 111/111. The procedure:
Gene expression of certain transcripts of interest were measured using Nanostring Technology. […] Some STHdh 7/7 and STHdh 111/111 cell samples were not heat shocked and some wells were treated with Compound 22 at the indicated concentration on for 48 hours (Table 12). Some STHdh 7/7 and STHdh 111/111 cell samples were heat shocked for 3 hours some wells were treated with Compound 22 at the indicated concentration on for 48 hours (Table 13). Cells are washed with PBS, trypsinised, and gathered in a 15 ml falcon tube. After a short spin down for 3 minutes at 300 g, the cell pellet was washed with PBS once, before it was frozen down in liquid nitrogen. RNA was extracted with a standard protocol. The nCounter® Mouse Neuropathology Panel (Nanostring, Seattle) was used for gene expression analysis according to the manufacturer’s protocols.

Entries after “also recorded” stand apart in the source; their conditions may differ.

T1 sequence (P42858 whole entry, looked up, stated change not applied, the tested form may be a part): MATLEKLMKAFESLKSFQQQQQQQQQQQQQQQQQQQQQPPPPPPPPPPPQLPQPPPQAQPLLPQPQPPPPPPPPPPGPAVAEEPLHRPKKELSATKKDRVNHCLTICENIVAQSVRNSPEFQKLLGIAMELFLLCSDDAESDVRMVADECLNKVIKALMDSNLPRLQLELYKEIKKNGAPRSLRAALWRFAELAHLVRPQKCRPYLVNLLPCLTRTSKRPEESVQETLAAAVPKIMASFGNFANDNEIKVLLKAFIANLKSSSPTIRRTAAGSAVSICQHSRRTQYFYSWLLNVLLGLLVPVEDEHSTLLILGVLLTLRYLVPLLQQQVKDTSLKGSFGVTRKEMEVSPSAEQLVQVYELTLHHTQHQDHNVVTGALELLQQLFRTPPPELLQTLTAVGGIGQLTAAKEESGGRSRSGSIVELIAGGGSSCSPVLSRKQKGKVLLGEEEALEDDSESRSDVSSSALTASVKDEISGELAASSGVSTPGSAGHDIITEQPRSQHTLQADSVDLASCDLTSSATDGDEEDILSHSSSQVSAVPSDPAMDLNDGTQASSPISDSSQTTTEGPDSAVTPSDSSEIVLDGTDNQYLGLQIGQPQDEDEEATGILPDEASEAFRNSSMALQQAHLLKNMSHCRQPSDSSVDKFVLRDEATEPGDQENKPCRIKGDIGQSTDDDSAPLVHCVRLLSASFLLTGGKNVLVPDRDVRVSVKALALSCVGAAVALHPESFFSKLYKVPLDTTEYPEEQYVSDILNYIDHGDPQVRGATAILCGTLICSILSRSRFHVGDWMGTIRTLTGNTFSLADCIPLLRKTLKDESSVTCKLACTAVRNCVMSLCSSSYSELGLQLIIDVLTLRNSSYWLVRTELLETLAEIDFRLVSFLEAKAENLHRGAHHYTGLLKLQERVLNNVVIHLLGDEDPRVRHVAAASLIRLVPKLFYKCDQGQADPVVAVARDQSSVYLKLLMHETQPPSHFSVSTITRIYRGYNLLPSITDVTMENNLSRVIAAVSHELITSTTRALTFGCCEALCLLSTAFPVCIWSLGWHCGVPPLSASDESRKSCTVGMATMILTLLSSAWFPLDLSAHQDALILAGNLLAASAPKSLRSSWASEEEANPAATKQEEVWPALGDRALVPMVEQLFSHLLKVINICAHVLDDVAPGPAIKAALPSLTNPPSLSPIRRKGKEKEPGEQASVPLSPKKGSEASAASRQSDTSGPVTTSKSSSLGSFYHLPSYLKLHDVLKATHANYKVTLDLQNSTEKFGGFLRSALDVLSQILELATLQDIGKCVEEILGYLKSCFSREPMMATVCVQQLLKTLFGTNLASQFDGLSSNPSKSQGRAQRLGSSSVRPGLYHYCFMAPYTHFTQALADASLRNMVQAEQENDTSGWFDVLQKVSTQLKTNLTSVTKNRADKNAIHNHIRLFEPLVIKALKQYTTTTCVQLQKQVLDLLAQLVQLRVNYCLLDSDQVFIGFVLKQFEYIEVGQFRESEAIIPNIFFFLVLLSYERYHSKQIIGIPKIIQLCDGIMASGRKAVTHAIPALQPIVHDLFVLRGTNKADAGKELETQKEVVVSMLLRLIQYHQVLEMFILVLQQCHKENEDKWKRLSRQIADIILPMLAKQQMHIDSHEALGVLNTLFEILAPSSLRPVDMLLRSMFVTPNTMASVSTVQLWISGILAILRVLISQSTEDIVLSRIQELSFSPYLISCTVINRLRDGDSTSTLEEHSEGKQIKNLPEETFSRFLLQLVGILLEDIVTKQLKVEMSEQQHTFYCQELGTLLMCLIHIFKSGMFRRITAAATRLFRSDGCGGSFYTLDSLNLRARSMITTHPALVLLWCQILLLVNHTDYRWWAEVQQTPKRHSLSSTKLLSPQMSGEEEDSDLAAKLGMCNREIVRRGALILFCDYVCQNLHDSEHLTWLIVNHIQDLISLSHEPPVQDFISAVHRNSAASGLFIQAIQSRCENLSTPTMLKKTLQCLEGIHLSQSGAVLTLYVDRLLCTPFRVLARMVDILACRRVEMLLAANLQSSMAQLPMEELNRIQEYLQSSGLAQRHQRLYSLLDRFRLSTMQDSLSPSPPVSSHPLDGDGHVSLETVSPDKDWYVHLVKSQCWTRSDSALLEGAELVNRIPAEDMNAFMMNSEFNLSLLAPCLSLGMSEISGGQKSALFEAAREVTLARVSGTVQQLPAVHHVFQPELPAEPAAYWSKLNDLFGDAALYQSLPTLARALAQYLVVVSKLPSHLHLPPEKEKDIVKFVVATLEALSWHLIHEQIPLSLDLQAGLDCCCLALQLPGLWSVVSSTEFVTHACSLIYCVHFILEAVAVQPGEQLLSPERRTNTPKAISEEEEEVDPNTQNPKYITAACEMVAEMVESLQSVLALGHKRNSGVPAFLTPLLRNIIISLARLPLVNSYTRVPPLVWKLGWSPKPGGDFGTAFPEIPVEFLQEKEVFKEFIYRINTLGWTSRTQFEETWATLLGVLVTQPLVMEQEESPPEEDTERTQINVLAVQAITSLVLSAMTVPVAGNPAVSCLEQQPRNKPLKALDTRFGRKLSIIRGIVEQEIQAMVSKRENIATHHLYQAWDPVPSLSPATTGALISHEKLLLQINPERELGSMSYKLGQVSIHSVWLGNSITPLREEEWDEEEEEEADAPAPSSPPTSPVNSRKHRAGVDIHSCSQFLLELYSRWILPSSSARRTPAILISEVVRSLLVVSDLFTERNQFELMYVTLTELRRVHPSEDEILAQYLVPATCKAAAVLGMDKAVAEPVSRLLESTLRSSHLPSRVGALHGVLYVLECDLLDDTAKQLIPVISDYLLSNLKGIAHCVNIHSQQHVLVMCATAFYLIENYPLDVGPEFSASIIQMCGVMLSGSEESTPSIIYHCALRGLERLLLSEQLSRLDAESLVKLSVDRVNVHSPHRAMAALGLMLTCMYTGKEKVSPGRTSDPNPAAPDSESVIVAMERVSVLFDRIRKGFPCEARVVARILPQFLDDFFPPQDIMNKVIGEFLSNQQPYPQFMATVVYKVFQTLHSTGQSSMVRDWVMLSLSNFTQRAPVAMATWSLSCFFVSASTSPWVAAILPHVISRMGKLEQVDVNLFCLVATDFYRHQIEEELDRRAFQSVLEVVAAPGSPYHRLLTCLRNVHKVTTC

With `Cc1[nH]c2ccc(C(=O)NCCN(C(C)C)C(C)C)cc2c1C` [Compound 22], the “reduction of mHTT aggregation (filter retardation)” value in experiment [1] is given as “A reduction of aggregation of Htt14A2.6 PC12 was observed; also recorded: A reduction of mHTT in Htt14A2.6 PC12 cells was observed”. Besides, in experiment [2], the “grip strength versus vehicle treated R6/2 mice” value is on record as “no significant differences”. For the same compound, at Exon1 Q46 protein, the Kd worked out at 700 nM. For the same compound, in the experiment on LC3 (autophagic flux) (STHdh 111/111, LC3 area with NH4Cl minus without NH4Cl), the autophagic flux entry was “positive autophagic flux”. Moreover, the LC3 stained area result in the experiment on LC3 (autophagic flux) (STHdh 111/111 neurons) is “decreased”. In addition, the “NGFR expression increased by” value in the experiment with NGFR came out at 60%.
